Among the data in patent US9896445B2, “Heterocyclic inhibitors of ERK1 and ERK2 and their use in the treatment of cancer” (Asana Biosciences, LLC, priority 2015, dated 2018) are IC50 values, retold here.

One experiment concerns the target T1, ERK1 (Homo sapiens, UniProt P27361).
T1 construct: purchased Jubilant Biosys
The experiment can be described thus: ERK1 HTRF (biochemical) assay. As to the method: ERK1 and ERK2 HTRF (Biochemical) Assays
These assays employed a homogeneous time resolved fluorescence (HTRF) technique. […] The plate was incubated at room temperature for 60 min with shaking. […] The IC50 values (half maximal inhibitory concentration values) were subsequently determined using a sigmoidal dose-response curve (variable slope) in GraphPad Prism® 5 software.
For orientation: In TR-FRET formats the signal depends on donor and acceptor labels being close together.

The next experiment addresses T2, ERK2 (Homo sapiens, UniProt P28482).
T2 construct: purchased Jubilant Biosys
Kind of experiment: ERK2 HTRF (biochemical) assay. The method, boiled down:
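Compounds were tested as half-log dilutions from 0.0005 to 10 uM in Tris pH 7.5/MgCl2 buffer, with a substrate mix of 1 uM biotin-MBP peptide and 24 uM ATP and an enzyme mix of 25 nM ERK2. Reaction ran 60 min at room temperature. Phospho-MBP was detected by HTRF (Eu-anti-phospho-MBP/SA-APC, 665/620 nm), and IC50 was fitted with a variable-slope sigmoidal curve.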

T2 sequence (P28482 whole entry): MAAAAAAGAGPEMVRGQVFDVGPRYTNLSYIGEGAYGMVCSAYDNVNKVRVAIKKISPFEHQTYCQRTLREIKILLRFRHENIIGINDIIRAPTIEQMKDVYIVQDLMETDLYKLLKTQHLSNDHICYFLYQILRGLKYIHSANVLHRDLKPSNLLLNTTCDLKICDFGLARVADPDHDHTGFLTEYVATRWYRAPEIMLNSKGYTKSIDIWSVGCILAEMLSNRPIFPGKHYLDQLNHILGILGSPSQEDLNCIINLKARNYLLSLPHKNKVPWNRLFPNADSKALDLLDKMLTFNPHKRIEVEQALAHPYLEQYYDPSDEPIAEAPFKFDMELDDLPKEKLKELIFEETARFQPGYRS
T1 sequence (P27361 whole entry): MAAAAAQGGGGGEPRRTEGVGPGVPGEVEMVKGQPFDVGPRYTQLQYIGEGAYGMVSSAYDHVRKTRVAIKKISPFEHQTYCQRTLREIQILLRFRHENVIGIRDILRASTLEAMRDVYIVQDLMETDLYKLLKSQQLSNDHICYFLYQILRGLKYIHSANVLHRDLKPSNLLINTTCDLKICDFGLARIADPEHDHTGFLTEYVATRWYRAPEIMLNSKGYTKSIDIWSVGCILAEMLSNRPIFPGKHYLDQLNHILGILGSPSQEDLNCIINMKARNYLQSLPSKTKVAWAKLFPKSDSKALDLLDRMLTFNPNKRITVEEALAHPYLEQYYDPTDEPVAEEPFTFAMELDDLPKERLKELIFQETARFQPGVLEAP

Usually IC50 stands for the concentration needed to halve the response being measured. A higher IC50 goes with weaker potency. `Cc1cnc(NC2CCS(=O)(=O)C2)nc1-n1cnc(C(=O)N[C@H](CO)c2cccc(Cl)c2)c1` (stereo partly drawn) [Compound 246, N-((S)-1-(3-chlorophenyl)-2-hydroxyethyl)-1-(2-((1,1-dioxido-tetrahydrothiophen-3-yl)amino)-5-methylpyrimidin-4-yl)-1H-imidazole-4-carboxamide]: the values for the half-inhibitory concentration (IC50) at ERK1 (HTRF) and against ERK2 (HTRF) were under 50 nM and at most 50 nM, respectively.
Regarding `Cc1cnc(NC2CCOC2)nc1-n1ccc(C(=O)N[C@H](CO)c2ccc(F)c(Cl)c2)c1` (stereo partly drawn) [Compound 157, N-((S)-1-(3-chloro-4-fluorophenyl)-2-hydroxyethyl)-1-(5-methyl-2-((tetrahydrofuran-3-yl)amino)pyrimidin-4-yl)-1H-pyrrole-3-carboxamide], the IC50 against ERK1 (HTRF) was under 50 nM; against ERK2 (HTRF), at most 50 nM.
As to `O=C(NC(CO)c1cccc(Cl)c1)c1ccn(-c2ccnc(Nc3ccccc3)c2)c1` (stereo not shown) [Compound 46, N-(1-(3-chloro-phenyl)-2-hydroxy-ethyl)-1-(2-(phenyl-amino)pyridin-4-yl)-1H-pyrrole-3-carboxamide], the half-inhibitory concentration (IC50) was under 50 nM on ERK1 (HTRF) and at most 50 nM against ERK2 (HTRF).
The matching figures for `Cc1cnc(NC2CCOCC2)nc1-n1cnc(C(=O)NC(c2cccc(Cl)c2)C(C)O)c1` (stereo not shown) [Compound 253, N-(1-(3-chlorophenyl)-2-hydroxypropyl)-1-(5-methyl-2-((tetrahydro-2H-pyran-4-yl)amino)-pyrimidin-4-yl)-1H-imidazole-4-carboxamide]: under 50 nM and at most 50 nM.
As to `Cc1cnc(NC2CCOCC2)nc1-n1cnc(C(=O)N[C@H](CN(C)C)c2cccc(Cl)c2)c1` [Example 320, (S)-N-(1-(3-chlorophenyl)-2-(dimethylamino)-ethyl)-1-(5-methyl-2-((tetrahydro-2H-pyran-4-yl)amino)-pyrimidin-4-yl)-1H-imidazole-4-carboxamide], the IC50 on ERK1 (HTRF biochemical assay) is under 50 nM; against ERK2 (HTRF biochemical assay) it was at most 50 nM.
Regarding `Cc1cnc(Nc2ccc3c(c2)OCO3)nc1-n1cnc(C(=O)N[C@H](CN)c2cccc(Cl)c2)c1` [Example 266, (S)-N-(2-amino-1-(3-chlorophenyl)-ethyl)-1-(2-(benzo[d][1,3]dioxol-5-ylamino)-5-methylpyrimidin-4-yl)-1H-imidazole-4-carboxamide], the concentration for half-maximal inhibition (IC50) against ERK1 (HTRF) was under 50 nM; at ERK2 (HTRF) it was at most 50 nM.
The matching figures for `Cc1cnc(Nc2ccc(F)cc2)nc1-n1cnc(C(=O)NC(CN)c2cccc(Cl)c2)c1` (stereo not shown) [Compound 177, N-(2-amino-1-(3-chlorophenyl)ethyl)-1-(2-((4-fluoro-phenyl)amino)-5-methylpyrimidin-4-yl)-1H-imidazole-4-carboxamide]: under 50 nM and at most 50 nM.
Regarding `Cc1cnc(NC2(CO)CC2)nc1-n1ccc(C(=O)NC(CO)c2ccc(F)c(Cl)c2)c1` (stereo not shown) [Compound 203, N-(1-(3-chloro-4-fluorophenyl)-2-hydroxyethyl)-1-(2-((1-(hydroxy-methyl)cyclopropyl)amino)-5-methyl-pyrimidin-4-yl)-1H-pyrrole-3-carboxamide], the half-maximal inhibitory concentration (IC50) at ERK1 (HTRF) and at ERK2 (HTRF) was 100 to 500 nM each time.
Regarding `CN1CCN(c2ccc(Nc3nccc(-n4cc(NC(=O)N[C@H](CO)c5cccc(Cl)c5)cn4)n3)cc2)CC1` [Compound 22, (S)-1-(1-(3-chlorophenyl)-2-hydroxyethyl)-3-(1-(2-((4-(4-methylpiperazin-1-yl)-phenyl)amino)pyrimidin-4-yl)-1H-pyrazol-4-yl)urea], the values for the IC50 against ERK1 (HTRF) and against ERK2 (HTRF) were 100 to 500 nM and 50 to 100 nM, respectively.
Take `Cc1cnc(NC2CCOCC2)nc1-n1cnc(C(=O)N[C@H](CNCC2CC2)c2cccc(Cl)c2)c1` [Example 339, 1-[5-Methyl-2-(tetrahydro-pyran-4-ylamino)-pyrimidin-4-yl]-1H-imidazole-4-carboxylic acid [(S)-1-(3-chloro-phenyl)-2-(cyclopropylmethyl-amino)-ethyl]-amide]: the IC50 against ERK1 (HTRF biochemical assay) was under 50 nM; at ERK2 (HTRF biochemical assay), at most 50 nM.
On to `Cc1cnc(Nc2ccc3c(c2)OCC3)nc1-n1ccc(C(=O)NC(CO)c2ccccc2)c1` (stereo not shown) [Compound 185], for which the IC50 was under 50 nM at ERK1 (HTRF) and at most 50 nM on ERK2 (HTRF).
Taken in the same sequence, the figures for `Cc1cnc(N[C@H]2CCOC2)nc1-n1ccc(C(=O)N[C@H](CO)c2cccc(Cl)c2)c1` [Compound 161, N-((S)-1-(3-chlorophenyl)-2-hydroxyethyl)-1-(5-methyl-2-(((S)-tetrahydrofuran-3-yl)amino)pyrimidin-4-yl)-1H-pyrrole-3-carboxamide] were under 50 nM and at most 50 nM.
Turning to `Cc1cnc(N[C@H]2CCOC2)nc1-n1cnc(C(=O)NCc2cccc(CO)c2Cl)c1` [Example 338, (S)-N-(2-chloro-3-(hydroxymethyl)-benzyl)-1-(5-methyl-2-((tetrahydrofuran-3-yl)amino)-pyrimidin-4-yl)-1H-imidazole-4-carboxamide], the half-maximal inhibitory concentration (IC50) against ERK1 (HTRF biochemical assay) was under 50 nM; against ERK2 (HTRF biochemical assay) it was at most 50 nM.
`Cc1cnc(Nc2ccc(F)cc2Cl)nc1-n1cc(C(=O)NC(CN)c2ccccc2)cn1` (stereo not shown) [Compound 54, N-(2-amino-1-phenylethyl)-1-(2-((2-chloro-4-fluoro-phenyl)amino)-5-methylpyrimidin-4-yl)-1H-pyrazole-4-carboxamide]: the IC50 at ERK1 (HTRF) is 50 to 100 nM; at ERK2 (HTRF), at most 50 nM.
For `Cc1cnc(Nc2ccccc2Cl)nc1-n1cc(NC(=O)N[C@H](CO)c2cccc(Cl)c2)cn1` [Compound 2], the IC50 at ERK1 (HTRF) was under 50 nM; against ERK2 (HTRF), 50 to 100 nM.
The matching figures for `Cc1cnc(NC2CCOCC2)nc1-n1cnc(C(=O)NCc2ccccc2CCO)c1` [Compound 94, N-(2-(2-hydroxyethyl)benzyl)-1-(5-methyl-2-((tetrahydro-2H-pyran-4-yl)amino)pyrimidin-4-yl)-1H-imidazole-4-carboxamide]: under 50 nM and at most 50 nM.
Regarding `Cc1cnc(Nc2ccc3c(c2)OCCO3)nc1-n1ccc(C(=O)NC(CO)c2ccccc2)c1` (stereo not shown) [Compound 131, 1-(2-((2,3-dihydrobenzo[b] [1,4]dioxin-6-yl)-amino)-5-methyl-pyrimidin-4-yl)-N-(2-hydroxy-1-phenylethyl)-1H-pyrrole-3-carboxamide], the concentration for half-maximal inhibition (IC50) against ERK1 (HTRF) was under 50 nM; on ERK2 (HTRF) it was at most 50 nM.
Taken in the same sequence, the figures for `Cc1cnc(NC2CCOCC2)nc1-n1cnc(C(=O)N[C@@H](CO)c2cccc(Cl)c2)c1` [Compound 217, (R)-N-(1-(3-chlorophenyl)-2-hydroxyethyl)-1-(5-methyl-2-((tetrahydro-2H-pyran-4-yl)amino)-pyrimidin-4-yl)-1H-imidazole-4-carboxamide] were 100 to 500 nM and 100 to 500 nM.
Taken in the same sequence, the figures for `Cc1cnc(NC2CCCCC2)nc1-n1ccc(C(=O)NC(CO)c2cccc(Cl)c2)c1` (stereo not shown) [Compound 195, N-(1-(3-chlorophenyl)-2-hydroxyethyl)-1-(2-(cyclohexylamino)-5-methylpyrimidin-4-yl)-1H-pyrrole-3-carboxamide] were under 50 nM and at most 50 nM.
Taken in the same sequence, the figures for `O=C(N[C@H](CO)c1cccc(Cl)c1)c1ccn(-c2nc(NC3CCOCC3)ncc2F)c1` [Compound 229, (S)-N-(1-(3-chlorophenyl)-2-hydroxyethyl)-1-(5-fluoro-2-((tetrahydro-2H-pyran-4-yl)amino)-pyrimidin-4-yl)-1H-pyrrole-3-carboxamide] were under 50 nM and at most 50 nM.
As for `Cc1cnc(NC2CCCOC2)nc1-n1ccc(C(=O)NC(CO)c2ccccc2)c1` (stereo not shown) [Compound 141, N-(2-hydroxy-1-phenylethyl)-1-(5-methyl-2-((tetrahydro-2H-pyran-3-yl)amino)-pyrimidin-4-yl)-1H-pyrrole-3-carboxamide], the half-maximal inhibitory concentration (IC50) against ERK1 (HTRF) was under 50 nM; at ERK2 (HTRF), at most 50 nM.
In the case of `Cc1cnc(N[C@H]2CCOC2)nc1-n1cnc(C(=O)N[C@H](CN)c2cccc(Cl)c2)c1` [Example 255, N-((S)-2-amino-1-(3-chlorophenyl)-ethyl)-1-(5-methyl-2-(((S)-tetrahydro-furan-3-yl)amino)-pyrimidin-4-yl)-1H-imidazole-4-carboxamide], the IC50 against ERK1 (HTRF) is under 50 nM; against ERK2 (HTRF), at most 50 nM.
Take `Cc1cnc(N[C@H]2CCOC2)nc1-n1cnc(C(=O)NCc2cccc(Cl)c2C)c1` [Example 331, (S)-N-(3-chloro-2-methylbenzyl)-1-(5-methyl-2-((tetrahydrofuran-3-yl)amino)pyrimidin-4-yl)-1H-imidazole-4-carboxamide]: the concentration for half-maximal inhibition (IC50) against ERK1 (HTRF biochemical assay) is under 50 nM; against ERK2 (HTRF biochemical assay) it was at most 50 nM.
Turning to `Cc1cnc(NCC2CCCO2)nc1-n1ccc(C(=O)N[C@H](CO)c2cccc(Cl)c2)c1` (stereo partly drawn) [Compound 190, N-((S)-1-(3-chlorophenyl)-2-hydroxyethyl)-1-(5-methyl-2-(((tetrahydrofuran-2-yl)methyl)-amino)pyrimidin-4-yl)-1H-pyrrole-3-carboxamide], the figures for the IC50 at ERK1 (HTRF) and against ERK2 (HTRF) were under 50 nM and 50 to 100 nM, respectively.
In the case of `Cc1cnc(NC2CCN(C)CC2)nc1-n1cnc(C(=O)N[C@H](CO)c2cccc(Cl)c2)c1` [Example 296, (S)-N-(1-(3-chlorophenyl)-2-hydroxyethyl)-1-(5-methyl-2-((1-methylpiperidin-4-yl)amino)-pyrimidin-4-yl)-1H-imidazole-4-carboxamide], the results for the 50% inhibitory concentration (IC50) at ERK1 (HTRF) and at ERK2 (HTRF) were under 50 nM and at most 50 nM, respectively.
The matching figures for `O=C(Nc1cnn(-c2ccnc(Nc3ccccc3Cl)n2)c1)N[C@H](CO)c1ccccc1` [Compound 7, (S)-1-(1-(2-((2-chlorophenyl)amino)pyrimidin-4-yl)-1H-pyrazol-4-yl)-3-(2-hydroxy-1-phenylethyl)urea]: 50 to 100 nM and 50 to 100 nM.
